Values belong to the compound of their own block, whether it stands above or below them.
Tests used:
[1] = system: alcohol-induced liver steatosis; details: past studies; cited from earlier work
[2] = system: CP55940-induced hypothermia (centrally located CB1 receptors); details: rodents; cited from earlier work
[3] = target: T1, hCB1 (Homo sapiens, UniProt P21554)
[4] = target: T1, hCB1; test: calcium-mobilization inverse-agonist assay in CHO-hCB1 cells; details: neutral antagonist or inverse agonist

T1 sequence (P21554 whole entry): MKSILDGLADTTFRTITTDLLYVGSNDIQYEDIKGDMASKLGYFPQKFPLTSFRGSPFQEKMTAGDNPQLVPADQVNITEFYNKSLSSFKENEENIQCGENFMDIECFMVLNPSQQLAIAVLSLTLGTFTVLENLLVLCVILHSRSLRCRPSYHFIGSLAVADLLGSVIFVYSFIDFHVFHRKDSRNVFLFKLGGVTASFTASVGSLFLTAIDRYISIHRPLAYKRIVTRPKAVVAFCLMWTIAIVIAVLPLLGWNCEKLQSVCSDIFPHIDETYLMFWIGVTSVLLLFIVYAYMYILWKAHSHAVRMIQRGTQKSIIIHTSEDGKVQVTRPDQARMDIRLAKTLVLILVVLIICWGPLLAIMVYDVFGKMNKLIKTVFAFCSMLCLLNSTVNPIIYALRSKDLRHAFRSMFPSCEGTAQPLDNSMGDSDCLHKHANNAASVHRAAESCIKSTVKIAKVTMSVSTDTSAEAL

Structure (SMILES): Cc1c(C(=O)NN2CCCCC2)nn(-c2ccc(Cl)cc2Cl)c1-c1ccc(Cl)cc1 [Compound 1, Rimonabant]
reduction of alcoholic steatosis (AS) [1]: effective at reducing AS

Structure (SMILES): CCNC1(C(N)=O)CCN(c2ncnc3c2nc(-c2ccccc2Cl)n3-c2ccc(Cl)cc2)CC1 [Compound 2, otenabant]
blocking of CP55940-induced reduction of body temperature [2]: known to block this effect

Structure (SMILES): N#CC(c1ccccc1)N1CCN(c2ncnc3c2nc(-c2ccccc2Cl)n3-c2ccc(Cl)cc2)CC1 (stereo not shown) [Compound 21, {4-[8-(2-Chlorophenyl)-9-(4-chlorophenyl)-9H-purin-6-yl]-piperazin-1-yl}(phenyl)acetonitrile]
selectivity for hCB1 over hCB2 (binding assays) [3]: ~ 60 fold

functional mode at hCB1 [4]: inverse agonist
Structure (SMILES): Clc1ccc(-n2c(-c3ccccc3Cl)nc3c(N4CCN(Cc5ccccc5Cl)CC4)ncnc32)cc1 [Compound 25, 6-[4-(2-Chlorobenzyl)piperazin-1-yl]-8-(2-chlorophenyl)-9-(4-chlorophenyl)-9H-purine]

— paper PMC7607848 (Journal of medicinal chemistry, 2018)
